Values quoted from earlier work, collected in patent US12447190B1, “Vasopressin premix systems and uses thereof” (Baxter International Inc., priority 2023, dated 2025).

What was measured:
[1] = system: patients with vasodilatory shock

NC(=O)CC[C@@H]1NC(=O)[C@H](Cc2ccccc2)NC(=O)[C@H](Cc2ccc(O)cc2)NC(=O)[C@@H](N)CSSC[C@@H](C(=O)N2CCC[C@H]2C(=O)N[C@@H](CCCN=C(N)N)C(=O)NCC(N)=O)NC(=O)[C@H](CC(N)=O)NC1=O [vasopressin, Cyclo (1-6) L-Cysteinyl-L-Tyrosyl-L-Phenylalanyl-L-Glutaminyl-L-Asparaginyl-L-Cysteinyl-L-Prolyl-L-Arginyl-L-Glycinamide]
time for pressor effect to fade ([1]; after stopping the infusion): ≤ 20 min | time for pressor effect to reach its peak ([1]; infusion in patients): ≤ 15 min | time to steady state plasma concentrations (continuous intravenous infusion): 30 min | vasopressin plasma concentrations versus infusion rate (infusion rates from 10 to 200 U/kg/min): increases linearly
